Laboratory results from the supplement of paper PMC8671470.
± gives the standard deviation of the averaged measurements.

Experiments:
Conditions in all cases: 72 h
KU-812 [1] = system: KU-812
How it was run: (§1)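 For the IC50, dose–response curves were fitted with a log-logistic model. The data came from fifteen myeloid leukaemia cell lines grown in RPMI 1640 at densities in the linear growth range and incubated in 384-well plates for 72 h at 37 °C under 5% CO2. Doses were five tenfold steps from 1 to 10,000 nM in duplicate, and luminescent ATP viability was normalised to vehicle and to a positive control at 10 µM before four-parameter fitting.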

NOMO-1 [2] = system: NOMO-1
How it was run: as §1

MV4-11 [3] = system: MV4-11
How it was run: as §1

K-562 [4] = system: K-562
How it was run: as §1

Mono-Mac-6 [5] = system: Mono-Mac-6
How it was run: as §1

HL-60 [6] = assay: cell viability (% survival relative to DMSO control); higher = less cytotoxic
How it was run: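 A rescreen of the full library used HL-60 cells in RPMI 1640 with 10% FBS on 384-well plates, run in duplicate at five tenfold concentrations (1–10,000 nM). Each screen included DMSO or 100 nM of one of three metabolic inhibitors and ran 72 h at 37 °C, 5% CO2. CellTiter-Glo viability was scaled between DMSO and 10 μM proteasome-inhibitor wells. Any area under the curve comes from four-parameter log-logistic fits with drc and PharmacoGx.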

KU-812 [7] = assay: cell viability (% survival relative to DMSO control, bortezomib = 0%); higher = less cytotoxic
How it was run: (§2)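 Fifteen myeloid leukaemia cell lines (10 AML, 5 CML) were seeded at a density titrated to the linear growth range into 384-well plates pre-printed with compounds at 1, 10, 100, 1000 or 10000 nM in duplicate. Plates were incubated for 72 h at 37 °C with 5% CO2. Viability was then read by CellTiter-Glo luminescence. Each value is percent survival averaged over the duplicates, with vehicle set to 100% and a 10 µM positive control to 0%.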

ML-2 = assay: as above
How it was run: as §2

NOMO-1 [8] = assay: as above
How it was run: as §2

KG-1 = assay: as above
How it was run: as §2

MOLM-13 = assay: as above
How it was run: as §2

HL-60 [9] = assay: as above
How it was run: as §2

MV4-11 [10] = assay: as above
How it was run: as §2

K-562 [11] = assay: as above
How it was run: as §2

KCL-22 = assay: as above
How it was run: as §2

BV-173 = assay: as above
How it was run: as §2

HEL = assay: as above
How it was run: as §2

THP-1 = assay: as above
How it was run: as §2

Mono-Mac-6 [12] = assay: as above
How it was run: as §2

LAMA-84 = assay: as above
How it was run: as §2

SHI-1 = assay: as above
How it was run: as §2

CC[C@H](C)[C@H](N)C(=O)N1CCSC1 [P32/98]
Conditions | IC50 (cell viability) [µM]
K-562 [4] | > 10
KU-812 [1] | > 10
MV4-11 [3] | > 10
Mono-Mac-6 [5] | > 10
NOMO-1 [2] | > 10

cell viability [%], HL-60 [6]
Conditions | 0.001 µM | 0.01 µM | 0.1 µM | 1 µM | 10 µM
co-treatment: AZD3965 100 nM | 99.83 ± 0.39 | 97.4 ± 1.5 | 102 ± 5.5 | 98.4 ± 1.6 | 95.6 ± 4
co-treatment: DMSO vehicle | 99.4 ± 4 | 105 ± 3.5 | 99.5 ± 1.5 | 98.74 ± 0.79 | 97.8 ± 4.4
co-treatment: GSK2194069 100 nM | 99.6 ± 1.6 | 100 ± 3.4 | 98.8 ± 3.1 | 98.7 ± 4.2 | 96.6 ± 6.2
co-treatment: pictilisib 100 nM | 105 ± 1.3 | 106 ± 19 | 96.3 ± 2 | 105 ± 3.8 | 101 ± 9.5

cell viability [%]
Conditions | 1 nM | 10 nM | 100 nM | 1000 nM | 10000 nM
BV-173 | 96.2 | 95.3 | 96.7 | 115 | 84
HEL | 105 | 98.7 | 109 | 107 | 105
HL-60 [9] | 88.1 | 103 | 108 | 98.6 | 76.7
K-562 [11] | 101 | 98.6 | 96.6 | 101 | 100
KCL-22 | 96.8 | 97.3 | 107 | 98.2 | 100
KG-1 | 97.9 | 110 | 108 | 112 | 137
KU-812 [7] | 97.7 | 92.3 | 92.6 | 103 | 97.9
LAMA-84 | 96.6 | 102 | 102 | 106 | 103
ML-2 | 102 | 102 | 102 | 103 | 91.2
MOLM-13 | 84.3 | 87.8 | 99.7 | 103 | 97.4
MV4-11 [10] | 98.7 | 110 | 106 | 96.9 | 108
Mono-Mac-6 [12] | 93.6 | 99 | 109 | 103 | 101
NOMO-1 [8] | 102 | 102 | 99.6 | 102 | 92.9
SHI-1 | 111 | 99.9 | 103 | 97.1 | 88.5
THP-1 | 96.8 | 105 | 112 | 104 | 106

CCCCCCCC/C=C\CCCCCCCC(=O)Nc1ccccc1 [Octadec-9-Enoic Acid Phenylamide]
Conditions | IC50 (cell viability) [µM]
K-562 [4] | > 10
KU-812 [1] | > 10
MV4-11 [3] | > 10
Mono-Mac-6 [5] | > 10
NOMO-1 [2] | > 10

cell viability [%], HL-60 [6]
Conditions | 0.001 µM | 0.01 µM | 0.1 µM | 1 µM | 10 µM
co-treatment: AZD3965 100 nM | 99.2 ± 1.6 | 98.61 ± 0.52 | 104 ± 4.4 | 101 ± 1.6 | 90.3 ± 8.5
co-treatment: DMSO vehicle | 94.5 ± 9.6 | 91.3 ± 13 | 103 ± 5.8 | 101 ± 3.4 | 105 ± 3.8
co-treatment: GSK2194069 100 nM | 93 ± 1.7 | 98 ± 9.1 | 103 ± 4.3 | 98.7 ± 4.8 | 91.5 ± 6.8
co-treatment: pictilisib 100 nM | 98.2 ± 4.6 | 99 ± 3.9 | 106 ± 1.2 | 108 ± 10 | 91.3 ± 8.9

cell viability [%]
Conditions | 1 nM | 10 nM | 100 nM | 1000 nM | 10000 nM
BV-173 | 98.4 | 94.8 | 99.7 | 100 | 95.7
HEL | 104 | 92.9 | 92.3 | 106 | 104
HL-60 [9] | 96.1 | 105 | 113 | 100 | 124
K-562 [11] | 110 | 92.7 | 95.8 | 104 | 93.4
KCL-22 | 103 | 95.7 | 99.5 | 103 | 96.6
KG-1 | 107 | 96.9 | 99.9 | 99.2 | 97.4
KU-812 [7] | 100 | 96.3 | 95.6 | 96.8 | 108
LAMA-84 | 107 | 97.8 | 101 | 103 | 99.4
ML-2 | 113 | 105 | 99.9 | 103 | 108
MOLM-13 | 106 | 90.3 | 91.1 | 98.3 | 108
MV4-11 [10] | 118 | 100 | 108 | 110 | 82.6
Mono-Mac-6 [12] | 97.1 | 103 | 108 | 99.5 | 101
NOMO-1 [8] | 97 | 97.1 | 97.1 | 99.2 | 99.6
SHI-1 | 109 | 94.4 | 103 | 100 | 98
THP-1 | 98.7 | 97.9 | 103 | 93.5 | 107
